Measurements published in a melting point compilation (Tetko et al.; mined from patent text by program, amines drawn as free bases though some values may be those of a salt).

| SMILES | melting point |
| --- | --- |
| O=C1Nc2c(ccc3ccccc23)SC1Cc1ccc(Cl)cc1 (centres undefined) | 185 to 186 °C |
| O=C1N(Cc2ccccn2)c2ccccc2C12COc1cc3c(cc12)OCCCO3 (centres undefined) | 122 to 123 °C |
| CN1C(=O)NC(=O)C1(C)O (centres undefined) | 122 to 123 °C |
| COc1cc(-c2ncn(C)c2-c2scc(OC)c2OC)cc(OC)c1OC | 142 to 143 °C |
| CC(C)n1cc(-c2ccc3nnn(Cc4ccc5ncccc5c4)c3n2)cn1 | 126 to 128 °C |
| CN(N)c1ccc(-c2ccccc2)nn1 | 145 to 147 °C |
| CCCCNC(=O)Oc1ccc(Oc2ccc(OC)cc2)cc1 | 63 to 64 °C |
| CC1(C)CCC(C)(C)c2cc(N(Cc3cccs3)C(=O)Nc3ccc(C(=O)O)cc3)ccc21 | 167 to 170 °C |
| CC(C(=O)CC(C)(C)Cc1ccc(Cl)cc1)N1C(=O)c2ccccc2C1=O (centres undefined) | 96 to 98 °C |
| O=S(=O)(CC(O)(CBr)c1ccccc1)c1ccccc1 (centres undefined) | 91 °C |
| O=C(O)[C@H]1Cc2ccccc2CN1S(=O)(=O)c1ccc(-c2ccccc2)cc1 | 195 to 202 °C |
| Cc1cc(C(=O)c2ccccc2)c(-n2c(C)nnc2CNC(=O)c2cc3ccccc3[nH]2)s1 | 231 to 233 °C |
| O=C(O)c1ccc(OCCCCl)cc1 | 136 to 138 °C |
| CCc1nc2c(c3c1[nH]c1ccccc13)C(=O)CC(C)(C)C2 | 188 to 190 °C |
| CCCN(CCC)C(=O)CNc1nc(-c2ccccc2)nc(C)c1C | 79 to 80 °C |
| Cc1ccc(C(=C/C=C/CO)c2ccc(C)cc2)cc1 | 82 to 83 °C |
| CCc1ccc(Nc2nc3cc(NC(=O)c4ccccc4)ccc3o2)cc1 | 239 to 240 °C |
| CSc1cc2c(cn1)c(=O)n(C)c1cc(C)nn21 | > 300 °C |
| CN(CCCN=C(NC#N)NCCSCc1csc(NC(=N)N)n1)CCC(c1ccccc1)c1ccccn1 (centres undefined) | 110 to 112 °C |
| CC(=O)Nc1nc(-c2ccc(S(C)=O)cc2)cs1 (centres undefined) | 274 °C |

| SMILES | melting point |
| --- | --- |
| COc1cc2c(cc1OC)CN(c1nc(N)c3cc(OC)c(OC)cc3n1)C2 | 264 to 266 °C |
| CCOC(=O)c1ccc(-c2cccc(OCc3ccc(COC(=O)c4ccccc4)c(COC(=O)c4ccccc4)c3)c2)nc1 | 118 to 120 °C |
| COC(=O)C=Cc1cccc2[nH]ccc12 | 113 to 115 °C |
| COc1ccccc1OCCCOS(N)(=O)=O | 80 to 83 °C |
| CCOC(=O)C(=O)c1csc(NC(=S)NC(=O)c2ccccc2)n1 | 155 to 157 °C |
| COc1ccc(-c2sc3cccnc3c2OC(C)=O)cc1 | 146 to 148 °C |
| CCCCNC(=O)Cc1ccc2c(c1)c(Cc1ccc(C(=O)NS(=O)(=O)c3ccccc3C)cc1OC)cn2CCC | 100 to 102 °C |
| CCOc1ccc(C(=O)NCc2ccc3c(c2)C(=O)N(C2(C)CCC(=O)NC2=O)C3=O)nc1 (centres undefined) | 145 to 147 °C |
| Cn1ncnc1COc1nc2c(cc1-c1ccc(F)cc1)nnn2-c1ccccc1F | 142 to 145 °C |
| COc1ccc(-n2cccc2)c([N+](=O)[O-])c1 | 75.5 to 76.5 °C |
| Clc1cnn(CCCCN2CCN(c3ccccc3)CC2)c1 | 58 to 61 °C |
| CCS(=O)(=O)Oc1ccc(C(C)(C)C)cc1C(C)(C)C | 76 °C |
| CC(C)(C)OC(=O)N[C@@H](Cc1ccc(-c2ccccc2)cc1)C(=O)OCc1ccccc1 | 98.3 to 100 °C |
| Cc1ccc(/C=C/C2=CCN(Cc3c[nH]c4ncccc34)CC2)cc1 | 209 to 212 °C |
| COc1ccc(-c2sc(-c3ccc(OC)s3)c3c2OCCO3)s1 | 101 °C |
| COc1cc(N)ccc1-c1ccc(-c2ccc(N)cc2OC)o1 | 201 to 202 °C |
| O=C(O)C12C3C4C5C(C1C53[N+](=O)[O-])C42[N+](=O)[O-] (centres undefined) | 187 °C |
| COc1ccc(Cn2nnnc2C(O)c2ccccc2C)cc1 (racemic) | 90 to 92 °C |
| CCn1nnc(Cc2ccc(NC(=O)/C=C/c3cnn(C)c3-c3ccc(F)cc3)cc2)n1 | 187 to 188 °C |
| CCc1cc2c3c(cc(C)c2[nH]c1=O)CC(C)(CN=[N+]=[N-])O3 (centres undefined) | 211 to 212 °C |

| SMILES | melting point |
| --- | --- |
| COc1ccc2c(c1)CCC1C2CCC2(C)C1CCC2N(C=O)CCCO (centres undefined) | 159 to 161 °C |
| CC(C)Oc1ccc(CCCOc2cc(CCC(=O)O)n(-c3ccccc3)n2)c(Oc2ccc(C(F)(F)F)cn2)c1 | 80 to 82 °C |
| CC(C)(C)C(=O)N1CCSC1=S | 48 to 50 °C |
| Cc1cccc2c(=O)[nH]c(C3CCN(C)CC3)cc12 | 196 to 198 °C |
| Cn1c(=O)c2c(ncn2CCCOS(C)(=O)=O)n(C)c1=O | 112 to 113 °C |
| Cc1c(C)n(CC(F)(F)F)c2c(OCc3ccccc3)nncc12 | 83 to 84 °C |
| CC1CC(=O)NN=C1c1ccc(NC(=O)C(C)OS(C)(=O)=O)cc1 (centres undefined) | 110 to 112 °C |
| CNC(=O)Oc1c(OC)c(OC)c(OC(=O)NC)c2ccccc12 | 228 to 229 °C |
| Clc1ccc(CC2(n3cncn3)CC2)cc1 | 67 to 68 °C |
| CC(=O)C1CCC2C3CCC4CC(OS(C)(=O)=O)CCC4(C)C3C(OC(=O)CI)CC12C (centres undefined) | 142 to 143 °C |
| CC(Oc1ccc(-c2cccc(NC(N)=O)c2)cc1)C(O)CCc1cccnc1 (centres undefined) | 75 to 76 °C |
| CCS(=O)(=O)N=CNCc1nc(-c2csc(N=C(N)N)n2)cs1 | 216 to 217 °C |
| CCc1cc2c(s1)-n1c(C)nnc1C(CCCC(=O)O)N=C2c1ccc(Cl)cc1 (centres undefined) | 185 to 187 °C |
| Cc1ccc(S(=O)(=O)C[C@H]2CN3C(=O)C[C@@H]3O2)cc1 (racemic) | 120 to 121 °C |
| CCOC(=O)C1=C(C)NC(N)(c2nc(-c3cccc(C(F)(F)F)c3)cs2)N=C1 (centres undefined) | 227 to 229 °C |
| CCN(CC)C(=O)c1c(CO)cccc1[Si](C)(C)C | 81 to 82.5 °C |
| COc1ccc(C=CC(=O)NCCc2ccc(-c3ccccc3)c(S(N)(=O)=O)c2)c(OC)c1 | 85 °C |
| CCCNC(=O)C(CCC(=O)NCCCOC(C)=O)NC(=O)C=Cc1ccco1 (centres undefined) | 154 to 156 °C |

Next, values leading:

| melting point | SMILES |
| --- | --- |
| 191 to 192 °C | C[C@H]1N(C(=O)c2ccc(C(F)(F)F)cc2F)CC(=O)O[C@@]1(Cn1cncn1)c1ccc(F)cc1F (relative stereo) |
| 177 to 178 °C | CCOC(=O)c1cnc2n(c1=O)C(C)CCC2=NNc1ccc(Cl)cc1 (centres undefined) |
| 258 °C | Cc1ccc(-n2ncc(C(=O)Nc3ccc(N4CCN(C5CCOCC5)CC4)c(C#N)c3)c2C)cc1 |
| 62 to 66 °C | Cc1ccc2nc(OCC(=O)NCCCN(C)Cc3ccc(Cl)c(Cl)c3)oc2c1 |
| 102 to 103 °C | O=C(O)Cc1ccc2c(c1)CC(CCNS(=O)(=O)c1ccccc1)C2 (centres undefined) |
| 252 to 254 °C | Cc1cc2c(cc1C1=NNC(=O)CC1)NC(=O)C(C)O2 (centres undefined) |
| 159 to 161 °C | COc1ccc(-c2cc(=O)c(C(=O)O)cn2C2CC2)cc1 |
| 154 °C | O=C(O)C1=Cc2cc(Oc3ccc(C(F)(F)F)cc3)ccc2OC1C(F)(F)F (centres undefined) |
| 68.4 °C | COc1ccccc1Nc1ccc2c(c1)OCc1cc(N)ccc1C2=O |
| 111 to 113 °C | NC(=O)N(O)Cc1sccc1Sc1ccc(Cl)cc1 |
| 95 °C | N#CC(C(=O)c1cc(F)c(Cl)cc1Cl)=C(N)C1CC1 |
| 64 to 65 °C | CC(=O)c1nnc(-c2ccc3occ(-c4cccc(OC(F)(F)F)c4)c3c2)o1 |
| 230 to 232 °C | C#CCOC1(C(F)(F)F)CN(C)C(=O)Nc2ccc(Cl)cc21 (centres undefined) |
| 140 to 143 °C | CC(C)(C)COc1ccc(N(CC(=O)O)C(=O)c2cccn2-c2ccc(F)cc2)cc1C#N |
| 194 to 197 °C | CC(=O)Nc1cc(Oc2ccc3c(C(=O)Nc4ccc(CN5CCNCC5)c(C(F)(F)F)c4)cccc3c2)ncn1 |
| 89 to 90 °C | CCCCCCOc1c(F)cc(F)c(C(N)=O)c1F |
| 93 to 94 °C | COC(=O)c1ccc2scc(Br)c2c1 |
| 179 to 182 °C | Nc1ccc2nc(-c3ccc4c(c3)OCCO4)ncc2c1 |
| 191 to 192 °C | O=C(C#Cc1ccc(CN2CCC(N3CCCC3)CC2)cc1)Nc1ccc(-c2ccc(Cl)cc2)cc1 |
| 175 to 177 °C | Cc1ccc2c(n1)Oc1ccc(C(C)C(=O)OCC(N)=O)cc1C2 (centres undefined) |
| 107 to 110 °C | CS(=O)(=O)c1ccc(C(CC2CCCC2)C(=O)Nc2ccccn2)cc1S(C)(=O)=O (centres undefined) |

| melting point | SMILES |
| --- | --- |
| 109 to 112 °C | O=C(CC(=O)c1cc(CN2CCOCC2)sc1Cl)NCc1ccc(Cl)cc1 |
| 137 °C | Cc1ccc(S(=O)(=O)N2[C@@H](C(N)=O)CC[C@H]2c2ccc(F)cc2)cc1 (racemic) |
| 129 to 131 °C | COc1ccc(F)c2c(OC)c(C=O)ccc12 |
| 74 to 78 °C | CC(=C(C#N)C(=O)Nc1ccccc1C(C)C)N(C)C |
| 130 to 131 °C | COC(=O)c1cc(OC)c(N(C)C(=O)OCc2ccccc2)c(OC)c1 |
| 187 to 189 °C | COCCCn1c(CO)cc2c3c(c(-c4ccccc4Cl)cc21)C(=O)NC3=O |
| 172 to 173 °C | Clc1cc(N2Cc3ccccc3C2)nc2ccccc12 |
| 108 to 111 °C | O=[N+]([O-])c1cc(Cl)cc(O)c1O |
| 234 to 236 °C | O=C(O)CCN1Cn2cc(C(=O)O)cc2-c2ccccc21 |
| 286 to 288 °C | CCC(C)C(C)C(=O)Nc1ccc2ncn3c(=O)c(C(=O)O)cnc3c2c1 (centres undefined) |
| 165 to 166 °C | N#CC(CC(=O)O)(c1ccc(F)cc1)c1ccc(F)cc1 |
| 182 to 190 °C | CC(C)Oc1ccc(-n2c(C(=O)O)c(C(=O)O)c3cc(Oc4cccc(Cl)c4)ccc32)cc1 |
| 167 to 169 °C | CCc1ccc2c(c1)OC(C(F)(F)F)C(C(=O)O)=C2 (centres undefined) |
| 200 to 204 °C | N=C(NS(=O)(=O)c1ccc(F)cc1)C1=NN(c2ccc(Cl)cc2)C(c2ccccc2)C1 (centres undefined) |
| 146 to 148 °C | O=C(NCc1ccc(OCc2cccc(F)c2)cc1)C(=NO)c1ccccn1 |
| 238 to 241 °C | COc1cc(Nc2c(C#N)cnc3cc(-c4coc(C=O)c4)c(OC)cc23)c(Cl)cc1Cl |
| 75 to 77 °C | CC(C)(C)C(=O)OCOC(=O)C1CCc2c(c3ccccc3n2C(=O)c2ccccc2)C1 (centres undefined) |
| 186 to 188 °C | N#Cc1cc(S(=O)(=O)c2ccc(N)cc2)cc(Br)n1 |
| 155 to 157 °C | COc1nc(N)nc2c1ncn2[C@H]1C[C@H](O)[C@@H](CO)O1 |
| 120 to 122 °C | O=C(O)CCCN(C(=O)c1ccc(F)cc1)c1ccccc1-c1ccccc1 |
